Experimental data reported in US7279302B2, “Methods for identifying herbicidal compounds” (Bayer CropScience S.A., priority 2000, dated 2007).

Columns and labels:
Format in all cases: biochemical
[1] = target: T1, TyrA-AT1 arogenate dehydrogenase (Arabidopsis thaliana, UniProt Q944B6); experiment: arogenate dehydrogenase activity, spectrophotometric monitoring at 340 nm, recombinant TyrA-AT1; details: for Michaelis constant: Km for substrate/cofactor; for inhibition of arogenate dehydrogenase activity: 1 mM
T1 construct: recombinant proteins were observed only with the constructs encoding the proteins M58-TyrA-Atc and M58-TyrA-AT1; made in house; host or cells: Escherichia coli AT2471 (pET21a(+)), soluble crude extract
T1 sequence (Q944B6 with tags, fused parts or gaps): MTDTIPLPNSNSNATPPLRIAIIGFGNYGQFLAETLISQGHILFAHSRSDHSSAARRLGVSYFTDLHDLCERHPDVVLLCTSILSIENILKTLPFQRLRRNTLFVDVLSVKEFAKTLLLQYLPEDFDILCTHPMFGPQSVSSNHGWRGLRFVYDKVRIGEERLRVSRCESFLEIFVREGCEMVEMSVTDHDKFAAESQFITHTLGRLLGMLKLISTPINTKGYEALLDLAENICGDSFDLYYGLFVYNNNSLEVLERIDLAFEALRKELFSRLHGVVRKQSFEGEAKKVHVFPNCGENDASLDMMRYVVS
Description: (§1) The arogenate dehydrogenase activity is measured at 25° C. by spectrophotometric monitoring, at 340 nm, of the formation of NADH or NADPH in a solution containing 50 mM of Tris-HCl, pH 8.6, 300 μm of arogenate and 1 mM of NAD or […] in a total volume of 200 μl.
(§2) Eshcerichia coli AT2471 cells were transformed with each one of the plasmids pET21-TyrA-AT obtained in example 3, and then cultured at 37° C. in 2 liters of Luria-Bertani medium supplemented with 100 μg/ml of carbenicillin. When the culture had reached the equivalent of an absorbance at 600 nm (A600) of 0.6, 1 mM of isopropyl-β-D-thiogalactoside was added to the culture medium in order to induce recombinant protein synthesis. The cells were then cultured for 16 h at 28° C., harvested, and then centrifuged for 20 min at 40 000 g. The pellet was then resuspended in a 50 mM Tris-HC1 buffer, pH 7.5, containing 1 mM EDTA, 1 mM dithiothreitol, 1 mM benzamidine HCl and 5 mM aminocaproic acid, and then sonicated (100 pulses every 3 seconds at power 5) with a Vibra-Cell disrupter (Sonics and Materials, Danbury, Conn., USA). The crude extracts thus obtained were then centrifuged for 20 min at 40 000 g, and the supernatants were used directly for the enzyme assays.
(§3) The biochemical characterization of the recombinant arogenate dehydrogenase enzymes was carried out using the soluble protein extracts of the transformed E. coli strains. The arogenate dehydrogenase activity was measured according to the method described in example 4. […] No arogenate dehydrogenase activity was detected in the presence of NAD, and no prephenate dehydrogenase activity was detected whatever the cofactor used (NADP or NAD) and whatever the protein tested (TyrA-ATc, TyrA-AT1 or TyrA-AT2). […] Each one of these enzymes has a Michaelis-Menten-type behavior, and their Km value for arogenate and NADP is relatively the same (FIGS. 2 and 3). The Michaelis constants for NADP are, respectively, 40 μM for TyrA-Atc, 60 μM for TyrA-AT1, and 20 μM for TyrA-AT2. The Michaelis constants for arogenate are, respectively, 70 μM for TyrA-Atc, 45 μM for TyrA-AT1, and 45 μM for TyrA-AT2. In addition, like the other plant arogenate dehydrogenases (Byng et al., 1981, Phytochemistry 6, 1289-1292; Connelly and Conn, 1986, Z. Naturforsch 41c, 69-78; Gaines et al., 1982 Planta 156, 233-240), the Arabidopsis arogenate dehydrogenases are all very sensitive to tyrosine, the product of the enzyme reaction, and insensitive to 1 mM of phenylalanine and 1 mM of p-hydroxyphenylpyruvate.

[2] = target: T2, TyrA-AT2 arogenate dehydrogenase (Arabidopsis thaliana, UniProt Q944B6); experiment: arogenate dehydrogenase activity, spectrophotometric monitoring at 340 nm, recombinant TyrA-AT2; details: for Michaelis constant: Km for substrate/cofactor; for inhibition of arogenate dehydrogenase activity: 1 mM
T2 construct: at the ATG codon of the second open reading frame (at position 1081 from the first ATG codon); made in house; host or cells: Escherichia coli AT2471 (pET21a(+)), soluble crude extract
T2 sequence (Q944B6 339-640): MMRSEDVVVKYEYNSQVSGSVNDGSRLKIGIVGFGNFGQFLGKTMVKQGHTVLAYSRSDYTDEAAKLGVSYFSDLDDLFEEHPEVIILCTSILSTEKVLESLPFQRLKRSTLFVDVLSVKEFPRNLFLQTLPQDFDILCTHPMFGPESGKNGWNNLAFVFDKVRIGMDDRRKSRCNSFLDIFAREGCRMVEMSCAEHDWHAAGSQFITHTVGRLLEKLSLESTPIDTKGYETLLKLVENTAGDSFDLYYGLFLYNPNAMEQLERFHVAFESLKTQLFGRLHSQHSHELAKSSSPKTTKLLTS
Description: as §1, §2, §3

[3] = test system: Synechocystis arogenate dehydrogenase; experiment: arogenate dehydrogenase activity, spectrophotometric monitoring at 340 nm, recombinant Synechocystis enzyme; details: for Michaelis constant: Km for substrate/cofactor
Description: as §1, §2
The sequence of the gene encoding the A. thaliana arogenate dehyrogenase identified in example 1 (TyrA) made it possible to identify an arogenate dehydrogenase gene in the bacterium Synechocystis (accession number: 1652956). This gene was originally described as encoding a “prephenate dehydrogenase” enzyme. It was isolated from a Synechocystis genomic library and the enzyme was produced in the same way as the A. thaliana enzyme, according to the protocol described in example 5 . […] The arogenate dehydrogenase activity was measured according to the method described in example 4 . […] No arogenate dehydrogenase activity was detected in the presence of NAD, and no prephenate dehydrogenase activity was detected whatever the cofactor used (NADP or NAD). […]

[4] = target: T3, TyrA-ATc arogenate dehydrogenase (Arabidopsis thaliana, UniProt Q944B6, V36M); experiment: arogenate dehydrogenase activity, spectrophotometric monitoring at 340 nm, recombinant TyrA-ATc; details: for Michaelis constant: TyrA-Atc, Km for substrate/cofactor; for inhibition of arogenate dehydrogenase activity: TyrA-ATc, 1 mM
T3 construct: introduces an ATG initiating codon and an Nde I restriction site (underlined) at position 174 from the first ATG codon (V58M); made in house; host or cells: Escherichia coli AT2471 (pET21a(+)), soluble crude extract
T3 sequence (Q944B6 36-640 V36M): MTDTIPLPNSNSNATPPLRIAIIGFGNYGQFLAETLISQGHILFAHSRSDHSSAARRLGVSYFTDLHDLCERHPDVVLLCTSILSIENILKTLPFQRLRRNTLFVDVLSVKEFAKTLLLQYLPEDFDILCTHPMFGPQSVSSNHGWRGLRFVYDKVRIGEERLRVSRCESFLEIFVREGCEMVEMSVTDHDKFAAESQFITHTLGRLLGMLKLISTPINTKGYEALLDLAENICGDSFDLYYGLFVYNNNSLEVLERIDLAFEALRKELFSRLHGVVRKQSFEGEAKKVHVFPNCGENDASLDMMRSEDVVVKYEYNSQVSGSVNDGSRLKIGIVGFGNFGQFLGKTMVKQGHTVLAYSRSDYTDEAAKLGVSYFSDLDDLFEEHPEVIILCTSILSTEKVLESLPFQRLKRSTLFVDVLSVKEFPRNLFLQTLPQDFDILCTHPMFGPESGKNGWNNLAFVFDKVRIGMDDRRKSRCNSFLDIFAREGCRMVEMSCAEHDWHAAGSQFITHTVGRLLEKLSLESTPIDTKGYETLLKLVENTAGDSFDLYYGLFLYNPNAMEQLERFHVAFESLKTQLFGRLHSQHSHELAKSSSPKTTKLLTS
Description: as §1, §2, §3

[5] = target: T4, TyrA-ATc arogenate dehydrogenase (Arabidopsis thaliana, UniProt Q944B6); experiment: as above; details: TyrA-Atc; inhibition competitive with respect to arogenate
T4 construct: introduces an ATG initiating codon and an Nde I restriction site (underlined) at position 174 from the first ATG codon (V58M); made in house; host or cells: Escherichia coli AT2471 (pET21a(+)), soluble crude extract
T4 sequence (Q944B6 36-640 V36M): as above
Description: as §1, §2, §3

[6] = inhibition competitive with respect to arogenate

SMILES	Michaelis constant [1]	Michaelis constant [2]	Michaelis constant [3]	Michaelis constant [4]	inhibition of arogenate dehydrogenase activity [1]	inhibition of arogenate dehydrogenase activity [2]	inhibition of arogenate dehydrogenase activity [4]	further results
NC(=O)c1ccc[n+]([C@@H]2O[C@H](COP(=O)([O-])OP(=O)(O)OC[C@H]3O[C@@H](n4cnc5c(N)ncnc54)[C@H](OP(=O)(O)O)[C@@H]3O)[C@@H](O)[C@H]2O)c1 [NADP]	60 µM	20 µM	6 µM	40 µM	–	–	–	–
N[C@@H](CC1(C(=O)O)C=CC(O)C=C1)C(=O)O (stereo partly drawn) [arogenate]	45 µM	45 µM	107 µM	70 µM	–	–	–	–
O=C(O)C(=O)Cc1ccc(O)cc1 [p-hydroxyphenylpyruvate]	–	–	–	–	insensitive	insensitive	insensitive	–
N[C@@H](Cc1ccccc1)C(=O)O [phenylalanine]	–	–	–	–	insensitive	insensitive	insensitive	–
O=C(O)C(=O)CC1(C(=O)O)C=CC(O)C=C1 (stereo not drawn) [prephenate]	–	–	–	–	does not inhibit	does not inhibit	does not inhibit	inhibition of arogenate dehydrogenase activity ([3]; 1 mM): does not inhibit
N[C@@H](Cc1ccc(O)cc1)C(=O)O [tyrosine]	–	–	–	–	–	–	–	Ki [1, 6]: 8 µM; Ki [2, 6]: 12 µM; Ki [5]: 14 µM
